Here are results for nine compounds from patent US4144236A (priority 1973, dated 1979).

Broadly, the LD50 is the dose expected to kill half of the subjects tested.

Like-named read-outs stand apart in the source and are kept apart here.

In series [1] the test system is citric acid aerosol induced cough. The series can be described thus: animal or person. The class given is in vivo, Wistar rats. The conditions noted are these: for ED50: Rattus norvegicus, read-out: AtD50. As to the method:
The anti-tussive activity in rats was tested by the method of Gosswald. Wistar rats weighing 130 to 180 g were placed in a plexi box (23 × 22 × 11 cm) and cough responses were elicited by citric acid aerosol (10%). The latency period of cough was measured before and after drug administration. The control latency was determined 18 hours before the drug administration. Animals with less than 60 second control latency were used for the experiments. […] Each animal was exposed to citric acid aerosol for a period of 3 minutes 30 seconds and 60 minutes after drug administration. […] Ten animals were used at each dose level. The anti-tussive dose (AtD50) was calculated according to Litchfield and Wilcoxon. The drugs were administered by subcutaneous and oral routes.

The nature of series [2]: Blood pressure changes in anesthetized cats. As to conditions: for Change in blood pressure: drop from control. As for the experimental part: Blood pressure changes were studied in cats anesthetized with pentabarbitone sodium (35 mg/kg, i.p.). The substances were injected into the right femoral vein, responses to drugs were measured by means of a mercury manometer and recorded on a smoke cylinder.

Series [3] deals with electrical stimulation induced coughing. The series can be described thus: Anti-tussive activity: electrical stimulation (superior laryngeal nerve) induced coughing in cats (method of Domenjoz). The class given is in vivo. As to conditions: for ED100 / ED50: Felis catus; for ED100: read-out: AtD100; for ED50: read-out: AtD50. As for the experimental part: Anti-tussive activity in cats was determined by the method of Domenjoz. Cats weighing 2.5 to 3.5 kg were anesthetized with an i.p. dose of 30 mg per kg of sodium pentobarbitone. […] The cough responses were measured by means of a Marey-tambour connected to a face mask and recorded on a smoked paper. Drugs were given intravenously in increasing doses. The effect of each dose was measured on at least five cats. The effects of the drug was calculated from the changes of amplitude of cough curves. If no coughing was produced by two successive stimulations, the dose was taken as the effective anti-tussive dose (AtD100). The anti-tussive dose (AtD50) which reduces the control response by 50% was calculated by the method of Litchfield and Wilcoxon.

A short description of the next series: in vivo. The conditions noted are these: rat, sc.
Series [4] in a line: Analgesic activity, writhing test (Van der Wende and Margolin), s.c., mice. The conditions noted are these: Mus musculus, sc, read-out: ED50 (Writhing test). On the technique in general: Writhing tests count abdominal constrictions after an irritant is injected.
Series [5] can be described thus: Analgesic ED50, hot plate test, i.p. (footnote of Table 4). The conditions noted are these: for ED50: ip, read-out: ED50 (analgesic). The class given is in vivo. As for the experimental part:
0.025 mg./kg. i.p., Compound "A": 0.0125 mg./kg. i.p. (measured by the ho

The text on series [6]:
^++ D'Amour,D.E. and Smith,D.L.: J.Pharm.Expt.Ther. 72. 74 (1941)
This is another data set of the same source.

Series [7] can be described thus: Physical dependency disposition test (spring-test; jumping after naloxone) for 2 days on mice. The conditions noted are these: Haloxone 100 mg./kg., 2nd day; for Average jump per mouse: mice.
Description: ^+ The total dosage was added intraperitoneally in seven, gradually
increasing increments, within 26 hours.
The mark [8] stands for this setting: sc, rats, s.c., limits in brackets.
The mark [9] stands for this setting: anesthetized cats, 0.5 mg/kg i.v.
Where [10] appears, read: anesthetized cats, 0.5 mg/kg i.v., means ± S.E.
Setting [11] is: iv, cats, i.v., no coughing by two successive stimulations.
[12] abbreviates: cats, i.v., no coughing by two successive stimulations.
The mark [13] stands for this setting: rats, s.c., 95% confidence limits given.
Setting [14] is: rats, s.c., 95% confidence limits on the next line.
The mark [15] stands for this setting: total dosage 1 i.p. in 26 hours.
[16] abbreviates: total dosage 10 i.p. in 26 hours.
The mark [17] stands for this setting: total dosage 40 i.p. in 26 hours.
Where [18] appears, read: total dosage 70 i.p. in 26 hours.
The mark [19] stands for this setting: total dosage 100 i.p. in 26 hours.
The mark [20] stands for this setting: total dosage 200 i.p. in 26 hours.
Where [21] appears, read: total dosage 400 i.p. in 26 hours.
The mark [22] stands for this setting: total dosage 1000 i.p. in 26 hours.

As to `COc1ccc2c3c1O[C@H]1C(N=[N+]=[N-])CC[C@@]4(O)[C@@H](C2)N(C)CC[C@]314` (some centres unmarked) [14-OH-azidocodeine], the ED50 in [1] (setting [8]) was 0.82 mg/kg; in [3] (iv, cats, i.v.), 0.6 mg/kg. The “Ratio codeine/drug (AtD50)” value in series [1] (rats, s.c.) stood at 23.17; in series [3] (cats, i.v.) it was 2.42. Further, the “Change in blood pressure” value in [2] (setting [9]) is listed as 3 ± 1.3 mm Hg. In series [2] (setting [10]), the “Blood pressure after drug” value is reported as 126 ± 6.6 mm Hg. Further, the “blood pressure effect in words” value in series [2] (anesthetized cats, i.v.) was “The substances studied, except azidocodeine and 14-hydroxy-azidocodeine, lowered blood pressure”. In series [3] (setting [11]), the ED100 was found to be 1.47 ± 0.07 mg/kg. Further, the “Ratio codeine/drug (AtD100)” value in [3] (cats, i.v.) came to 2.91.

In the case of `COc1ccc2c3c1O[C@H]1[C@H](N=[N+]=[N-])CC[C@H]4[C@@H](C2)N(C)CC[C@@]341` [Azidocodeine], the “Ratio codeine/drug (AtD50)” value in [1] (rats, s.c.) amounted to 12.10. Further, in series [1] (rats, s.c., limits in brackets), the AtD50 is listed as 1.57 (1.20-2.41) mg/kg s.c. Also, in series [2] (setting [9]), the “Change in blood pressure” value stood at 6 ± 3.8 mm Hg. For the same compound, the “Blood pressure after drug” value in series [2] (setting [10]) came out at 122 ± 5.2 mm Hg. In series [2] (anesthetized cats, i.v.), the “blood pressure effect in words” value was “The substances studied, except azidocodeine and 14-hydroxy-azidocodeine, lowered blood pressure”. Besides, in series [3] (cats, i.v.), the AtD50 is listed as 0.40 mg/kg i.v, the “Ratio codeine/drug (AtD50)” value was found to be 3.63 and the “Ratio codeine/drug (AtD100)” value worked out at 4.69. The compound also yielded an AtD100 in series [3] (setting [12]) of 1.08 ± 0.04 mg/kg i.v.

With `CN1CC[C@]23c4c5ccc(O)c4O[C@H]2[C@H](N=[N+]=[N-])CC[C@H]3[C@H]1C5` [Azidomorphine, 6-deoxy-6-azido-7,8-dihydroisomorphine], the ED50 worked out at 0.034 mg/kg in series [1] (setting [8]), 0.013 mg/kg in [4] and 0.025 mg/kg in series [5]. Besides, the “Ratio codeine/drug (AtD50)” value in series [1] (rats, s.c.) amounted to 558.82. In addition, under setting [13], the “ED50 (hot plate)” value is on record as 0.016 mg./kg.s.c. In “in vivo”, this compound came in with a median lethal dose (LD50) of 13 mg/kg. In series [2] (anesthetized cats, 0.0035 mg/kg i.v.), the “Change in blood pressure” value amounted to 40 ± 3.4 mm Hg. Further, the “Blood pressure after drug” value in series [2] (anesthetized cats, 0.0035 mg/kg i.v., means ± S.E.) was determined as 103 ± 9.3 mm Hg. For the same compound, the “tolerance to the vasodepressor responses” value in series [2] (in vivo) was “cross tolerance between morphine, codeine, azidomorphine and 14-hydroxyazidomorphine* was observed”. For the same compound, in series [6] (setting [14]), the “ED50 (tail flick test)” value worked out at 0.012 s.c. mg./kg. The “Average jump per mouse” value in series [7] (setting [15]) is reported as 0.0; in series [7] (setting [16]), 1.4; in series [7] (setting [17]) it was 10.1; in series [7] (setting [18]) it was 7.4. Also, the Jumping mice/examined mice is recorded as 0/25 in series [7] (setting [15]), 10/25 in [7] (setting [16]), 19/25 in series [7] (setting [17]) and 12/25 in [7] (setting [18]).

In the case of `COc1ccc2c3c1O[C@H]1[C@@H](O)C=C[C@H]4[C@@H](C2)N(C)CC[C@@]341` [Codeine], the ED50 in series [1] (setting [8]) turned out to be 19 mg/kg; in series [1] (rats, oral, limits in brackets) it was 100 mg/kg; in series [3] (iv, cats, i.v.) it was 1.45 mg/kg. Moreover, the “Change in blood pressure” value in series [2] (anesthetized cats, 1.5 mg/kg i.v.) worked out at 26 ± 4.9 mm Hg. Also, the “Blood pressure after drug” value in series [2] (anesthetized cats, 1.5 mg/kg i.v., means ± S.E.) is 98 ± 5.3 mm Hg. Besides, the “tolerance to the vasodepressor responses” value in series [2] (anesthetized cats, successive administrations) was “cross tolerance between morphine, codeine, azidomorphine and 14-hydroxyazidomorphine* was observed”. For the same compound, the ED100 in [3] (setting [11]) was determined as 5.07 ± 1.87 mg/kg.

`CN1CC[C@]23c4c5ccc(O)c4O[C@H]2[C@H](N=[N+]=[N-])CC[C@@]3(O)[C@H]1C5` [Compound "A", 6-deoxy-6-azido-14-hydroxy-7,8-dihydroisomorphine]: the ED50 was found to be 10 mg/kg in [1] (po); 0.021 mg/kg in series [1] (setting [8]); 0.051 mg/kg in [4]; 0.0125 mg/kg in [5] (hot plate test); 0.012 mg/kg in series [3] (iv). For the same compound, the “anti-tussive activity in words” value in series [1] (rat, in vivo) is “superior anti-tussive to those anti-tussives currently in use”. Further, the “Ratio codeine/drug (AtD50)” value in series [1] (rat, in vivo, po) was found to be 10.00; in series [1] (rats, s.c.) it was 904.76; in series [3] (in vivo, iv), 120.83. The “potency as an anti-tussive relative to codeine” value in series [1] (rat, in vivo, sc) was 904 times. For the setting “rat, in vivo”, the “therapeutical indices in words” value is recorded as “more favorable therapeutical indices than any of the known substances with similar biological activities”. The “ED50 (hot plate)” value under setting [13] is given as 0.012 mg./kg.s.c. For the same compound, the LD50 in “in vivo” is 200 mg/kg. In addition, the “tolerance to the vasodepressor responses” value in series [2] (in vivo) is “cross tolerance between morphine, codeine, azidomorphine and 14-hydroxyazidomorphine* was observed”. Further, the “blood pressure effect in words” value in series [2] (in vivo, iv) was “greatest drop in blood pressure of all compounds tested”. For the same compound, the “Blood pressure after drug” value in [2] (in vivo, iv, 0.035 mg/kg) was determined as 97 ± 4.5 mm Hg. Moreover, the “ED50 (tail flick test)” value in series [6] (setting [14]) came out at 0.029 s.c. mg./kg. Also, the ED100 in series [3] (iv) was determined as 0.02 ± 0.002 mg/kg. Also, the “Ratio codeine/drug (AtD100)” value in series [3] (in vivo, iv) is reported as 253.50. Moreover, the “Average jump per mouse” value in [7] (setting [16]) came to 0.9; in series [7] (setting [18]), 3.8. Further, the Jumping mice/examined mice in [7] (setting [16]) was 3/25; in series [7] (setting [18]) it was 14.25.

As for `CCC(=O)C(CC(C)N(C)C)(c1ccccc1)c1ccccc1` (centres unmarked) [Methadone], the “ED50 (hot plate)” value (rat, in vivo, sc) came out at 1.9 mg./kg.s.c. The same compound displayed an LD50 in the series “in vivo” of 28 mg/kg. Also, the ED50 in series [4] stood at 0.71 mg/kg. Besides, in series [6] (rat, in vivo, sc), the “ED50 (tail flick test)” value is 1.6 s.c. mg./kg.

`CN1CC[C@]23c4c5ccc(O)c4O[C@H]2[C@@H](O)C=C[C@H]3[C@H]1C5` [Morphine]: the “ED50 (hot plate)” value (rat, in vivo, sc) came to 4.7 mg./kg.s.c. Further, the “Change in blood pressure” value in series [2] (anesthetized cats, 1.03 mg/kg i.v.) was 39 ± 2.1 mm Hg. In addition, in [2] (anesthetized cats, 1.03 mg/kg i.v., means ± S.E.), the “Blood pressure after drug” value came out at 92 ± 1.0 mm Hg. The “blood pressure effect in words” value in [2] (anesthetized cats, i.v.) is “only morphine produced a biphasic hypotensive effect”. In addition, the ED50 in [4] stood at 0.69 mg/kg; in series [3] (iv), 0.61 mg/kg. For the same compound, in [5] (i.p., hot plate test), the “ED50 (analgesic)” value was 5 mg./kg. i.p. The “ED50 (tail flick test)” value in series [6] (rat, in vivo, sc) came out at 1.8 s.c. mg./kg. This compound also registered an AtD100 in series [3] (setting [12]) of 1.28 ± 0.32 mg/kg i.v. Besides, the “Average jump per mouse” value in series [7] (setting [19]) is 9.7; in series [7] (setting [20]), 46.4; in series [7] (setting [21]) it was 42.7; in [7] (setting [22]), 48.7. Besides, the Jumping mice/examined mice in series [7] (setting [19]) is recorded as 20/25; in series [7] (setting [20]), 25/25; in series [7] (setting [21]) it was 25/25; in [7] (setting [22]), 25/25.

Take `CC(C)=CCN1CCC2(C)c3cc(O)ccc3CC1C2C` (centres unmarked) [Pentazocine]: the “ED50 (hot plate)” value under setting [13] was found to be 9.1 mg./kg.s.c. Also, in the series “in vivo”, the LD50 amounted to 280 mg/kg. In series [4], the ED50 is 8.1 mg/kg. For the same compound, in series [6] (setting [14]), the “ED50 (tail flick test)” value came out at 12 s.c. mg./kg.

As for `CCOC(=O)C1(c2ccccc2)CCN(C)CC1` [Petidine], the “ED50 (hot plate)” value under setting [13] came to 4.9 mg./kg.s.c. In “in vivo”, this compound had an LD50 of 280 mg/kg. Besides, in series [4], the ED50 is 3.3 mg/kg. Also, the “ED50 (tail flick test)” value in series [6] (setting [14]) was 4.3 s.c. mg./kg.
